From US8309593B2, “2-acylaminopropoanol-type glucosylceramide synthase inhibitors” (Genzyme Corporation, priority 2008, dated 2012)
Read-outs that look alike come from different tables or passages of the source.

Tests used:
GM3 = GM3 Elisa assay; format: cell-based; conditions: read-out: IC50_uM_Mean
Experimental: B16-FO cells from ATCC (American Tissue Culture Collection) were grown in DMEM media (ATCC) with 10% Fetal Bovine Serum (Hyclone) and Pen/Step/Glutamine (Biowhittaker). 4000 cells per well were plated on collagen coated plates (BD) and allowed to attach for 6 hours in an incubator (37 degrees, 5% CO2). After 6 hours the compounds and controls were added to the wells, the plates mixed and returned to the incubator for 2 days. Day of assay the cells were fixed for 20 minutes with 1% formaldehyde and then washed with Tris Buffered Saline (TBS) 3 times, 150 μl of TBS was left in the wells and 50 μl of goat serum (Invitrogen) was added, the plates mixed and incubated for 1 hour at room temperature. The plates were flicked and the cells incubated with the monoclonal Antibody to GM3 (NeuAc) (Cosmo) for 45 minutes as room temperature. The plates were then washed 3 times with TBS, leaving 150 μl of TBS in the wells and Peroxidase AffinPure F (ab′) 2 frag Gt Anti-mouse IgM, μ Chain Specific (Jackson Immuno Research) was added in 50 μl, the plates mixed and incubated for 45 minutes at room temperature. The plates were washed 3 times with TBS, flicked and blotted and 100 μl of Quantablu (Pierce) was added to the wells and incubated for 1 hour then read on a Fluorometer at Ex 325 and Em 420. The data was then analyzed using standard programs.

jck mice = experiment: PKD mouse model (jck mice, compound in feed); format: in vivo; conditions: for BUN / Body weight / Cystic volume / K/BW ratio: 0.225% Compound A in feed
Experimental: jck mice was administered Compound A ad libitum in feed (0.225% Compound A mixed with a standard diet chow in powdered format) from 26-64 days of age. Control jck mice were fed a control powdered diet from 26-64 days of age. At 63 days of age, animals were transferred to metabolic cages for 24 hour urine collection. At 64 days of age, animals were sacrificed by CO2 administration. Blood was collected by heart puncture for serum isolation. Kidneys were isolated and bisected; half of each kidney was fixed in 4% paraformaldehyde in PBS overnight for paraffin embedding and H&E staining.
Total body weight and kidney weight were determined at sacrifice.
Cyst volume was measured by quantitating the percentage of cystic area in histological sections of kidneys from the treated and control animals, multiplied by the kidney/body weight ratio.
Blood urea nitrogen (BUN) levels were determined in serum samples derived from animals at sacrifice.

[1] = 48 h, Table 1, B16-FO cells, 2 days with compound
[2] = female jck mice, 26-64 days of age
[3] = male jck mice, 26-64 days of age

Row | SMILES | IC50 (GM3; Table 3 (title: IC 50 Values)) [nM] | other results
1 | COc1ccc(OCCC(=O)N[C@H](CN2CCCC2)[C@@H](O)c2ccc3c(c2)OCCO3)cc1 [Compound 676] | 3000 to 10000 | 
2 | O=C(CCCc1nc2ccccc2s1)N[C@H](CN1CCCC1)[C@H](O)c1ccc2c(c1)OCCO2 [Compound 101, 4-(benzo[d]thiazol-2-yl)-N-((1R,2R)-1-(2,3-dihydrobenzo[1,4]dioxin-6-yl)-1-hydroxy-3-(pyrrolidin-1-yl)propan-2-yl)butanamide] |  | IC50 (GM3; [1]): ≤ 100 nM
3 | CCCCCCCCC(=O)N[C@H](CN1CCCC1)[C@H](O)c1ccc2c(c1)OCCO2 [Compound A, N-((1R,2R)-1-(2,3-dihydrobenzo[b][1,4]dioxin-6-yl)-1-hydroxy-3-(pyrrolidin-1-yl)propan-2-yl)nonanamide] |  | BUN (jck mice; [2]): 34.67 ± 9.41 mg/dL; Body weight (jck mice; [2]): 15.93 ± 1.65 g; Cystic volume (jck mice; [2]): 0.58 ± 0.29 % BW; K/BW ratio (jck mice; [2]): 3.57 ± 0.58 %; total body weight (jck mice; jck mice, 0.225% in feed, 26-64 days of age, at sacrifice, vs control, p-value<0.05, two-tailed t-test): statistically significant decrease; cyst volume (jck mice; jck mice, 0.225% in feed, 26-64 days of age, percentage cystic area x kidney/body weight ratio, vs control, p-value<0.05): significant decrease; Blood urea nitrogen (BUN) levels (jck mice; jck mice, 0.225% in feed, 26-64 days of age, serum at sacrifice, vs untreated controls, p-value<0.05): significant reduction; cystic disease (jck mice; jck mice, 0.225% in feed, as measured by kidney/body weight ratio and cyst volume, males and females): statistically significant reduction; renal function (jck mice; jck mice, 0.225% in feed, treated animals relative to controls, males and females): improved renal function; BUN (jck mice; [3]): 39.25 ± 10.70 mg/dL; Body weight (jck mice; [3]): 18.43 ± 1.82 g; Cystic volume (jck mice; [3]): 0.88 ± 0.23 % BW; K/BW ratio (jck mice; [3]): 4.46 ± 0.46 %
4 | CCCCCCCC(=O)N[C@H](CN1CC(OCCC)C1)[C@H](O)c1ccc2c(c1)OCCO2 [Compound 596] | 3000 to 10000 | 
5 | COc1cc([C@H](O)[C@@H](CN2CCCC2)NC(=O)CCCCCC(C)=O)cc(OC)c1OC [Compound 671] | 3000 to 10000 | 
6 | CCNC[C@@H](NC(=O)CCCCCC(=O)c1ccc(OC)cc1)C(O)c1ccc2c(c1)OCCO2 (some centres unmarked) [Compound 467] | 100 to 1000 | 
7 | CC(O)(CCCCCC(=O)N[C@H](CN1CCCC1)[C@@H](O)c1ccc2c(c1)OCCO2)C1CCCCC1 (some centres unmarked) [Compound 641] | ≤ 100 | 
8 | COc1ccc(C(=O)CCCCCC(=O)N[C@H](CN2CCC[C@H]2C)C(O)c2ccc3c(c2)OCCO3)cc1 (some centres unmarked) [Compound 529] | ≤ 100 | 
9 | CCCCCCCC(=O)N[C@H](CN1CCC[C@H]1COC)C(O)c1ccc2c(c1)OCCO2 (some centres unmarked) [Compound 534] | 3000 to 10000 | 
10 | CCCCCCCC(=O)N[C@H](CN1CC[C@H](F)C1)[C@H](O)c1ccc2c(c1)OCCO2 [Compound 510] | 3000 to 10000 | 
11 | CCCCCCCC(=O)N[C@H](CN1[C@H](C)CC[C@@H]1C)[C@H](O)c1ccc2c(c1)OCCO2 [Compound 549] | 3000 to 10000 | 
12 | O=C(N[C@H](CN1CCCC1)[C@@H](O)c1ccc2c(c1)OCCO2)C1(C(F)(F)F)CCC1 [Compound 614] | 3000 to 10000 | 
13 | COc1ccc(OCCC(=O)N[C@H](CN2CCCC2(C)C)[C@@H](O)c2ccc3c(c2)OCCO3)cc1 [Compound 551] | 3000 to 10000 | 
14 | COc1ccc(OCCC(=O)N[C@@H](CN2CCCC2)[C@@H](O)c2ccc3c(c2)OCCO3)cc1 [Compound 674] | 3000 to 10000 | 
15 | COc1ccc(C(=O)CCCCCC(=O)N[C@H](CN2CCC[C@@H]2C)C(O)c2ccc3c(c2)OCCO3)cc1 (some centres unmarked) [Compound 525] | ≤ 100 | 
16 | O=C(CCCCOC1CCOCC1)N[C@H](CN1CC[C@@H](F)C1)[C@@H](O)c1ccc(CCc2ccccc2)cc1 [Compound 575] | 100 to 1000 | 
17 | COc1ccc(OCCC(=O)N[C@H](CN2[C@H](C)CC[C@@H]2C)[C@H](O)c2ccc3c(c2)OCCO3)cc1 [Compound 550] | 3000 to 10000 | 
18 | O=C(CCCCCC1CCOCC1)N[C@H](CN1CC[C@@H](F)C1)[C@@H](O)c1cccc(OCc2ccccc2)c1 [Compound 574] | 100 to 1000 | 
19 | CCCCCCCC(=O)N[C@H](CN1CCC[C@@H]1COC)[C@@H](O)c1ccc2c(c1)OCCO2 [Compound 540] | 3000 to 10000 | 
20 | COC[C@@H]1CCCN1C[C@@H](NC(=O)CCOc1ccc(OC)cc1)C(O)c1ccc2c(c1)OCCO2 (some centres unmarked) [Compound 535] | 3000 to 10000 | 
21 | O=C(CC(F)(F)F)N[C@H](CN1CCCC1)[C@@H](O)c1ccc2c(c1)OCCO2 [Compound 624] | 3000 to 10000 | 
22 | CCCCCCCC(=O)N[C@H](CN1CCC[C@@H]1C)C(O)c1ccc2c(c1)OCCO2 (some centres unmarked) [Compound 527] | 1000 to 3000 | 
23 | COc1ccc(C(=O)CCOCCC(=O)N[C@H](CN2CC[C@@H](O)C2)[C@H](O)c2ccc3c(c2)OCCO3)cc1 [Compound 518] | 100 to 1000 | 
24 | CCC(=O)c1ccc(OCCC(=O)N[C@H](CN2CCCC2)[C@H](O)c2ccc3c(c2)OCCO3)cc1 [Compound 189, N-((1R,2R)-1-(2,3-dihydrobenzo[b][1,4]dioxin-6-yl)-1-hydroxy-3-(pyrrolidin-1-yl)propan-2-yl)-3-(4-propionylphenoxy)propanamide (2R,3R)-2,3-dihydroxysuccinate] |  | IC50 (GM3; [1]): 100 to 1000 nM
25 | CCCCCCCC(=O)N[C@H](CN1CCCC1(C)C)[C@@H](O)c1ccc2c(c1)OCCO2 [Compound 553] | 3000 to 10000 | 
26 | O=C(CCCCS(=O)(=O)C1CCCCC1)N[C@H](CN1CCCC1)[C@@H](O)c1ccc2c(c1)OCCO2 [Compound 557] | 3000 to 10000 | 
27 | COC[C@@H]1CCCN1C[C@@H](NC(=O)CCCCCC(=O)c1ccc(OC)cc1)C(O)c1ccc2c(c1)OCCO2 (some centres unmarked) [Compound 533] | 100 to 1000 | 
28 | CCCCCCCC(=O)N[C@H](CN1CC2CC2C1)[C@@H](O)c1ccc2c(c1)OCCO2 (some centres unmarked) [Compound 517] | 100 to 1000 | 
29 | COc1ccc(C(=O)CCCCCC(=O)N[C@H](CN2CCCC2(C)C)[C@@H](O)c2ccc3c(c2)OCCO3)cc1 [Compound 552] | 1000 to 3000 | 
